Results reported in PubChem BioAssay (NCI).
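Protocol summary: plate cells (96-well), add compound at 5 concentrations, incubate 48 h, interpolate endpoints linearly. TGI marks complete inhibition of growth.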

Key:
Experiment in all cases: NCI anticancer screen, dose series, 48 h
786-0 renal = tested on: 786-0 renal
A498 renal = tested on: A498 renal
A549 NSCLC = tested on: A549 NSCLC
ACHN renal = tested on: ACHN renal
BT-549 breast = tested on: BT-549 breast
CAKI-1 renal = tested on: CAKI-1 renal
CCRF-CEM leukemia = tested on: CCRF-CEM leukemia
COLO 205 colon = tested on: COLO 205 colon
DU-145 prostate = tested on: DU-145 prostate
EKVX NSCLC = tested on: EKVX NSCLC
HCT-116 colon = tested on: HCT-116 colon
HCT-15 colon = tested on: HCT-15 colon
HL-60(TB) leukemia = tested on: HL-60(TB) leukemia
HS 578T breast = tested on: HS 578T breast
HT29 colon = tested on: HT29 colon
IGROV1 ovarian = tested on: IGROV1 ovarian
K-562 leukemia = tested on: K-562 leukemia
KM12 colon = tested on: KM12 colon
LOX IMVI melanoma = tested on: LOX IMVI melanoma
M14 melanoma = tested on: M14 melanoma
MALME-3M melanoma = tested on: MALME-3M melanoma
MDA-MB-231 breast = tested on: MDA-MB-231 breast
MDA-MB-435 = tested on: MDA-MB-435
MDA-N = tested on: MDA-N
MOLT-4 leukemia = tested on: MOLT-4 leukemia
NCI-H226 lung = tested on: NCI-H226 lung
NCI-H23 lung = tested on: NCI-H23 lung
NCI-H460 lung = tested on: NCI-H460 lung
NCI-H522 lung = tested on: NCI-H522 lung
NCI/ADR-RES ovarian = tested on: NCI/ADR-RES ovarian
OVCAR-3 ovarian = tested on: OVCAR-3 ovarian
OVCAR-5 ovarian = tested on: OVCAR-5 ovarian
OVCAR-8 ovarian = tested on: OVCAR-8 ovarian
PC-3 prostate = tested on: PC-3 prostate
RPMI-8226 leukemia = tested on: RPMI-8226 leukemia
RXF 393 renal = tested on: RXF 393 renal
SF-268 CNS = tested on: SF-268 CNS
SF-295 CNS = tested on: SF-295 CNS
SF-539 CNS = tested on: SF-539 CNS
SK-MEL-2 melanoma = tested on: SK-MEL-2 melanoma
SK-MEL-28 melanoma = tested on: SK-MEL-28 melanoma
SK-MEL-5 melanoma = tested on: SK-MEL-5 melanoma
SK-OV-3 ovarian = tested on: SK-OV-3 ovarian
SN12C renal = tested on: SN12C renal
SNB-19 CNS = tested on: SNB-19 CNS
SNB-75 CNS = tested on: SNB-75 CNS
SR leukemia = tested on: SR leukemia
SW-620 colon = tested on: SW-620 colon
TK-10 renal = tested on: TK-10 renal
U251 CNS = tested on: U251 CNS
UACC-257 melanoma = tested on: UACC-257 melanoma
UACC-62 melanoma = tested on: UACC-62 melanoma
UO-31 renal = tested on: UO-31 renal
HCC-2998 colon = tested on: HCC-2998 colon
HOP-62 NSCLC = tested on: HOP-62 NSCLC
HOP-92 NSCLC = tested on: HOP-92 NSCLC
MCF7 breast = tested on: MCF7 breast
OVCAR-4 ovarian = tested on: OVCAR-4 ovarian

Measured: TGI

CCOC(=O)Cc1cc(=O)oc2cc(O)ccc12
not listed: HCC-2998 colon | HOP-62 NSCLC | HOP-92 NSCLC | MCF7 breast | OVCAR-4 ovarian
> 100 µM: all other assays above

Cc1cc2c(cc1C)[n+]([O-])c(NCCCN(C)C)c(C#N)[n+]2[O-]
not listed: COLO 205 colon | DU-145 prostate | MDA-MB-231 breast | SK-MEL-5 melanoma
> 100 µM: all other assays above
